From US20250145585A1, “HETEROCYCLIC INHIBITORS OF IGF-1R FOR TREATMENT OF DISEASE” (HORIZON THERAPEUTICS IRELAND DAC, priority 2023, published 2025) come the findings set out here.

The target of this assay is T1, IGF-1R (Homo sapiens, UniProt P08069).
T1 construct: expressed in transfected cells
In words: Example B-2: IGF-1R Assay (PathHunter cell lines, EC80 agonist challenge, chemiluminescent detection). To be noted: PathHunter cells, compound 60 minutes at 37° C., EC80 agonist 3 hours; read-out: IC50, Biological Activity against IGF-1R (Table B2). The format is cell-based. In a few lines: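 Read-out is PathHunter chemiluminescence, developed for 1 h at room temperature after a 3 h room-temperature EC80 agonist challenge that followed 60 min compound pre-treatment at 37° C (1% vehicle). IC50 comes from % inhibition normalized to EC80 and vehicle controls.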

pIC50: −log10 of the molar value.

T1 sequence (P08069 31-1367): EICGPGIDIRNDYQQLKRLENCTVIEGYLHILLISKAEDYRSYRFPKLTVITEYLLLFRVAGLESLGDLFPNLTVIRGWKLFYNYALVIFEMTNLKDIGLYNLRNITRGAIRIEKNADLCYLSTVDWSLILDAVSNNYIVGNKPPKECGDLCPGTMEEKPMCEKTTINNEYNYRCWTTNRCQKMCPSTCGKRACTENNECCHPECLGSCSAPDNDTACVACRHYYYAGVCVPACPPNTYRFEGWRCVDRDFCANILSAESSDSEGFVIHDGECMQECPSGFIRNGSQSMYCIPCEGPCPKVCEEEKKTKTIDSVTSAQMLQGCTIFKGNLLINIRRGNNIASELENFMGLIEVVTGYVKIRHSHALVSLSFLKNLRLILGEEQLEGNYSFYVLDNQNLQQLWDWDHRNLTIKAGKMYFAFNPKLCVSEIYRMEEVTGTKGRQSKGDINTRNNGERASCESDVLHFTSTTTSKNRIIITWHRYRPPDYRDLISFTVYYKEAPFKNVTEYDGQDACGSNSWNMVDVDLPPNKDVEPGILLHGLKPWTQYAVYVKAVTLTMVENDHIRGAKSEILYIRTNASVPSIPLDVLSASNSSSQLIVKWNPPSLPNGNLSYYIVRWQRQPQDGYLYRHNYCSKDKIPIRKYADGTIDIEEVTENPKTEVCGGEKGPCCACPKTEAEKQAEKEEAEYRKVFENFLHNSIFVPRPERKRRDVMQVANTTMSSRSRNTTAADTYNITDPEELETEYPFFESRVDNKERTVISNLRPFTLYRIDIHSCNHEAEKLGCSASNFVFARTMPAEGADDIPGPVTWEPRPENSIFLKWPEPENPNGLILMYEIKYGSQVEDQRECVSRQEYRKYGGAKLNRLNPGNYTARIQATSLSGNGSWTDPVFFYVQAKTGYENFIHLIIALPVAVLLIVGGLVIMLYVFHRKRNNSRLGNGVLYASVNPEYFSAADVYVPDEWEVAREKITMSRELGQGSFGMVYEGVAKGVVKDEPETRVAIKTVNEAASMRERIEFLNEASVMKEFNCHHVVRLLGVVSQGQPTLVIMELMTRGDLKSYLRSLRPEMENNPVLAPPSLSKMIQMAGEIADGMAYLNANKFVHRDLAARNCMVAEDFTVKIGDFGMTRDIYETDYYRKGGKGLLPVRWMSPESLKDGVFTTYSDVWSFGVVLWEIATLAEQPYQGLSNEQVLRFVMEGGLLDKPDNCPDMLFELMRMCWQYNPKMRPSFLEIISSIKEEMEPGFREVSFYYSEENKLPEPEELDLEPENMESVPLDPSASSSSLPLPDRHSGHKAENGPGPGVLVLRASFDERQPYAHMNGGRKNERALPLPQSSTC

One may read the pIC50 as the IC50 on a negative log10 scale, so that one unit is a factor of ten. Consider `COCCS(=O)(=O)N1CC(C)(C)c2ccc(N3C(=O)N(Cc4ccnc(NC5CCOCC5)c4)C(C)(C)C3=O)cc21` [Compound 228, 3-(1-((2-methoxyethyl)sulfonyl)-3,3-dimethylindolin-6-yl)-5,5-dimethyl-1-((2-((tetrahydro-2H-pyran-4-yl)amino)pyridin-4-yl)methyl)imidazolidine-2,4-dione], for which the negative logarithm of the IC50 (pIC50) was no less than 6.30.

Turning to `CC(C)(C)c1ccc(N2C(=O)N(Cc3ccnc4c3CC(=O)N4)C(C)(C)C2=O)cc1` [Compound 36, 3-(4-(tert-butyl)phenyl)-5,5-dimethyl-1-((2-oxo-2,3-dihydro-1H-pyrrolo[2,3-b]pyridin-4-yl)methyl)imidazolidine-2,4-dione], the negative-log IC50 (pIC50) was no less than 6.30.

`CC1(C)C(=O)N(c2ccc3c(c2)N(S(C)(=O)=O)CC32CC2(C)C)C(=O)N1Cc1ccnc(N[C@H]2[C@@H]3COC[C@@H]32)c1` (stereo partly drawn) [Compound 164, 1-((2-(((1R,5S,6r)-3-oxabicyclo[3.1.0]hexan-6-yl)amino)pyridin-4-yl)methyl)-3-(2,2-dimethyl-1′-(methylsulfonyl)spiro[cyclopropane-1,3′-indolin]-6′-yl)-5,5-dimethylimidazolidine-2,4-dione]: the negative-log IC50 (pIC50) is no less than 6.30.

For the compound `CC1(C)CN(S(C)(=O)=O)c2cc(N3C(=O)N(Cc4ccnc(NC5CCOCC5)c4)C(C)(C)C3=O)ccc21` [Compound 209, 3-(3,3-dimethyl-1-(methylsulfonyl)indolin-6-yl)-5,5-dimethyl-1-((2-((tetrahydro-2H-pyran-4-yl)amino)pyridin-4-yl)methyl)imidazolidine-2,4-dione], the pIC50 is no less than 6.30.

`CC1(C)C(=O)N(c2ccc(S(=O)(=O)C(F)(F)F)cc2)C(=O)N1Cc1ccnc(NC2CS(=O)(=O)C2)c1` [Compound 327, 1-((2-((1,1-dioxidothietan-3-yl)amino)pyridin-4-yl)methyl)-5,5-dimethyl-3-(4-((trifluoromethyl)sulfonyl)phenyl) imidazolidine-2,4-dione]: the pIC50 is 5.00 to 5.70.

Consider `CC1(C)C(=O)N(c2ccc(C3(C(F)(F)F)CC3)cc2)C(=O)N1Cc1ccnc(NCc2nnc[nH]2)c1` [Compound 174, 1-((2-(((4H-1,2,4-triazol-3-yl)methyl)amino)pyridin-4-yl)methyl)-5,5-dimethyl-3-(4-(1-(trifluoromethyl)cyclopropyl)phenyl) imidazolidine-2,4-dione], for which the pIC50 is no less than 6.30.

In the case of `CC1(C)COc2cc(N3C(=O)N(Cc4ccnc5c4CC(=O)N5)C(C)(C)C3=O)ccc21` [Compound 35, 3-(3,3-dimethyl-2,3-dihydrobenzofuran-6-yl)-5,5-dimethyl-1-((2-oxo-2,3-dihydro-1H-pyrrolo[2,3-b]pyridin-4-yl)methyl)imidazolidine-2,4-dione], the pIC50 was no less than 6.30.

Regarding `CC1(C)C(=O)N(c2ccc(S(=O)(=O)C(F)(F)F)cc2)C(=O)N1Cc1ccnc(N[C@H]2CCOCC2(F)F)c1` [Compound 343, (S)-1-((2-((3,3-difluorotetrahydro-2H-pyran-4-yl)amino)pyridin-4-yl)methyl)-5,5-dimethyl-3-(4-((trifluoromethyl)sulfonyl)phenyl) imidazolidine-2,4-dione], the negative-log IC50 (pIC50) is 5.00 to 5.70.

Turning to `CC(C)(C#N)c1ccc(N2C(=O)N(Cc3ccnc(N[C@H]4CCOC4)c3)C(C)(C)C2=O)cc1` [Compound 152, (S)-2-(4-(4,4-dimethyl-2,5-dioxo-3-((2-((tetrahydrofuran-3-yl)amino)pyridin-4-yl)methyl)imidazolidin-1-yl)phenyl)-2-methylpropanenitrile], the pIC50 was 5.70 to 6.30.

Turning to `CC1(C)C(=O)N(c2ccc3c(c2)N(S(C)(=O)=O)CC32CCC2)C(=O)N1Cc1ccnc(NCC2CC2(F)F)c1` (centres unmarked) [Compound 232, 1-((2-(((2,2-difluorocyclopropyl)methyl)amino)pyridin-4-yl)methyl)-5,5-dimethyl-3-(1′-(methylsulfonyl)spiro[cyclobutane-1,3′-indolin]-6′-yl)imidazolidine-2,4-dione], the pIC50 is no less than 6.30.

With `CC1(C)CN(S(C)(=O)=O)c2cc(N3C(=O)N(Cc4ccnc5c4CC(=O)N5)C(C)(C)C3=O)ccc21` [Compound 37, 3-(3,3-dimethyl-1-(methylsulfonyl)indolin-6-yl)-5,5-dimethyl-1-((2-oxo-2,3-dihydro-1H-pyrrolo[2,3-b]pyridin-4-yl)methyl)imidazolidine-2,4-dione], the negative logarithm of the IC50 (pIC50) was no less than 6.30.

As for `CC1C(=O)Nc2nccc(CN3C(=O)N(c4ccc(C5(C(F)(F)F)CC5)cc4)C(=O)C3(C)C)c21` (centres unmarked) [Compound 31, 5,5-dimethyl-1-((3-methyl-2-oxo-2,3-dihydro-1H-pyrrolo[2,3-b]pyridin-4-yl)methyl)-3-(4-(1-(trifluoromethyl)cyclopropyl)phenyl) imidazolidine-2,4-dione], the negative-log IC50 (pIC50) was no less than 6.30.

For `COC[C@@H](C)Nc1cc(CN2C(=O)N(c3cc(C(C)(C)C)nn3C)C(=O)C2(C)C)ccn1` [Compound 259, (R)-3-(3-(tert-butyl)-1-methyl-1H-pyrazol-5-yl)-1-((2-((1-methoxypropan-2-yl)amino)pyridin-4-yl)methyl)-5,5-dimethylimidazolidine-2,4-dione], the negative logarithm of the IC50 (pIC50) is no less than 6.30.

For `CC1(C)CN(S(C)(=O)=O)c2cc(N3C(=O)N(Cc4ccnc(N[C@@H]5C[C@@H]5F)c4)C(C)(C)C3=O)ccc21` [Compound 208, 3-(3,3-dimethyl-1-(methylsulfonyl)indolin-6-yl)-1-((2-(((1R,2S)-2-fluorocyclopropyl)amino)pyridin-4-yl)methyl)-5,5-dimethylimidazolidine-2,4-dione], the negative logarithm of the IC50 (pIC50) was no less than 6.30.

As to `CC1(C)C(=O)N(c2ccc(C3(C#N)CCC3)cc2)C(=O)N1Cc1ccnc2c1CC(=O)N2` [Compound 40, (1-(4-(4,4-dimethyl-2.5-dioxo-3-((2-oxo-2,3-dihydro-1H-pyrrolo[2,3-b]pyridin-4-yl)methyl)imidazolidin-1-yl)phenyl)cyclobutane-1-carbonitrile)], the pIC50 is no less than 6.30.

As for `CC1(C)C(=O)N(c2ccc(S(=O)(=O)C(F)(F)F)cc2)C(=O)N1Cc1ccnc(NC2CCN(S(C)(=O)=O)C2)c1` (centres unmarked) [Compound 329, 5,5-dimethyl-1-((2-((1-(methylsulfonyl)pyrrolidin-3-yl)amino)pyridin-4-yl)methyl)-3-(4-((trifluoromethyl)sulfonyl)phenyl) imidazolidine-2,4-dione], the pIC50 is 5.70 to 6.30.

Consider `CC1(C)C(=O)N(c2ccc3c(c2)N(S(C)(=O)=O)CC32CCC2)C(=O)N1Cc1ccnc(NCc2cccnc2)c1` [Compound 244, 5,5-dimethyl-3-(1′-(methylsulfonyl)spiro[cyclobutane-1,3′-indolin]-6′-yl)-1-((2-((pyridin-3-ylmethyl)amino)pyridin-4-yl)methyl)imidazolidine-2,4-dione], for which the pIC50 was no less than 6.30.

For `COCCC(C)Nc1cc(CN2C(=O)N(c3ccc4c(c3)N(S(C)(=O)=O)CC4(C)C)C(=O)C2(C)C)ccn1` (centres unmarked) [Compound 219, 3-(3,3-dimethyl-1-(methylsulfonyl)indolin-6-yl)-1-((2-((4-methoxybutan-2-yl)amino)pyridin-4-yl)methyl)-5,5-dimethylimidazolidine-2,4-dione], the negative logarithm of the IC50 (pIC50) is no less than 6.30.

Take `C[C@@H](CC#N)Nc1cc(CN2C(=O)N(c3ccc4c(c3)N(S(C)(=O)=O)CC43CC3)C(=O)C2(C)C)ccn1` [Compound 230, (S)-3-((4-((5,5-dimethyl-3-(1′-(methylsulfonyl)spiro[cyclopropane-1,3′-indolin]-6′-yl)-2,4-dioxoimidazolidin-1-yl)methyl)pyridin-2-yl)amino)butanenitrile]: the negative-log IC50 (pIC50) is no less than 6.30.

For `CC1(C)CN(C(N)=O)c2cc(N3C(=O)N(Cc4ccnc(N[C@H]5[C@@H]6COC[C@@H]65)c4)C(C)(C)C3=O)ccc21` [Compound 253, 6-(3-((2-(((1R,5S,6r)-3-oxabicyclo[3.1.0]hexan-6-yl)amino)pyridin-4-yl)methyl)-4,4-dimethyl-2,5-dioxoimidazolidin-1-yl)-3,3-dimethylindoline-1-carboxamide], the pIC50 was no less than 6.30.

Consider `CC1(C)C(=O)N(c2ccc3c(c2)N(S(C)(=O)=O)CC3)C(=O)N1Cc1ccnc2c1CC(=O)N2` [Compound 67, 5,5-dimethyl-3-(1-(methylsulfonyl)indolin-6-yl)-1-((2-oxo-2,3-dihydro-1H-pyrrolo [2,3-b]pyridin-4-yl)methyl)imidazolidine-2,4-dione], for which the pIC50 was less than 5.00.

On to `CC1(C)COc2cc(N3C(=O)N(Cc4ccnc5c4CC(=O)N5)C(C)(C)C3=O)c(Br)cc21` [Compound 53, 3-(5-bromo-3,3-dimethyl-2,3-dihydrobenzofuran-6-yl)-5,5-dimethyl-1-((2-oxo-2,3-dihydro-1H-pyrrolo[2,3-b]pyridin-4-yl)methyl)imidazolidine-2,4-dione], for which the pIC50 is 5.70 to 6.30.

In the case of `CC1(C)C(=O)N(c2ccc(C(C)(C)C(F)(F)F)cc2)C(=O)N1Cc1ccnc2c1C(F)(F)C(=O)N2` [Compound 49, 1-((3,3-difluoro-2-oxo-2,3-dihydro-1H-pyrrolo[2,3-b]pyridin-4-yl)methyl)-5,5-dimethyl-3-(4-(1,1,1-trifluoro-2-methylpropan-2-yl)phenyl)imidazolidine-2,4-dione], the pIC50 is no less than 6.30.

As for `CC1(C)C(=O)N(c2ccc(S(=O)(=O)C(F)F)cc2)C(=O)N1Cc1ccnc2c1CC(=O)N2` [Compound 63, 3-(4-((difluoromethyl)sulfonyl)phenyl)-5,5-dimethyl-1-((2-oxo-2,3-dihydro-1H-pyrrolo[2,3-b]pyridin-4-yl)methyl)imidazolidine-2,4-dione], the negative logarithm of the IC50 (pIC50) is 5.70 to 6.30.

On to `CC(C)(C)c1ccc(N2C(=O)C(C)(C)N(Cc3ccnc4[nH]ccc34)C2=S)cc1` [Compound 407, 1-((1H-pyrrolo[2,3-b]pyridin-4-yl)methyl)-3-(4-(tert-butyl)phenyl)-5,5-dimethyl-2-thioxoimidazolidin-4-one], for which the pIC50 is 5.70 to 6.30.

As for `CC1(C)C(=O)N(c2ccc(C3(C(F)(F)F)CC3)cc2)C(=O)N1Cc1ccnc(NCc2ncccn2)c1` [Compound 177, 5,5-dimethyl-1-((2-((pyrimidin-2-ylmethyl)amino)pyridin-4-yl)methyl)-3-(4-(1-(trifluoromethyl)cyclopropyl)phenyl) imidazolidine-2,4-dione], the pIC50 was no less than 6.30.
